Measured values: article PMC12217481, “Structure and mechanism of taniborbactam inhibition of the cefepime-hydrolyzing, partial R2-loop deletion Pseudomonas-derived cephalosporinase variant PDC-88” (Antimicrobial Agents and Chemotherapy, 2025)

What was measured:
[1] = tested on: isogenic E. coli strains expressing PDC R2-loop deletion variants (PDC-88 to PDC-92); assay: MIC changes across the five isogenic E. coli R2-loop deletion strains; format: cell-based, Escherichia coli; conditions: R2-loop deletion variant strains; for restoration of FEP activity / susceptibility by inhibitor: inhibitor at constant 4 µg/mL
Method: Modal broth microdilution MICs (or median broth microdilution MICs where appropriate) were determined in accordance with Clinical and Laboratory Standards Institute (CLSI) M07 guidelines ([43]). Isogenic E. coli DH10B cells expressing the abovementioned plasmid-encoded PDC constructs were used. […] CLSI quality control strains Escherichia coli NCTC 13353, E. coli ATCC 35218, and Klebsiella pneumoniae ATCC 700603 were used during testing ([24]).

PDC-3 = molecular target: T1, PDC-3 (Pseudomonas aeruginosa, UniProt P24735, T105A); assay: Thermal denaturation by circular dichroism, PDC-3; format: binding
T1 construct: The PDC-3 expression construct was created in a similar manner but starting with a previously described pBC SK(−) vector; made in house; host or cells: E. coli BL21-CodonPlus (DE3)-RP, pET24a(+)
Method: Competitive enzyme inhibitors can increase enzyme thermal stability as a result of binding to the active site.
Circular dichroism (CD) melting curve experiments were conducted using a J-815 spectropolarimeter (Jasco) and a Peltier effect temperature controller. Suprasil quartz cuvettes with a 0.1 cm path length (Hellma Analytics) were used in all experiments. […] Two-state behavior was observed, as indicated by identical curves at each wavelength. Equilibrium constants were calculated, and the melting temperature, Tm, was calculated from equilibrium denaturation data as previously described ([28]).

PDC-88 = molecular target: T2, PDC-88 (Pseudomonas aeruginosa, UniProt P24735, DEL316-317/G27D/G391A/T105A/V205L/V356I); format: binding
T2 construct: NdeI 5′-[…]-3ʹ and BamHI 5ʹ-[…]-3ʹ; His tag removed) (N); made in house; host or cells: E. coli BL21-CodonPlus (DE3)-RP, pET24a(+)
Method: Circular dichroism (CD) melting curve experiments were conducted using a J-815 spectropolarimeter (Jasco) and a Peltier effect temperature controller. Suprasil quartz cuvettes with a 0.1 cm path length (Hellma Analytics) were used in all experiments. […] Equilibrium constants were calculated, and the melting temperature, Tm, was calculated from equilibrium denaturation data as previously described ([28]).

| Compound | restoration of FEP activity / susceptibility by inhibitor [1] | decrease of FEP MIC of variants by inhibitor ([1]; inhibitor at constant 4 µg/mL with FEP) | increase of Tm upon addition of inhibitor (PDC-3; PDC-3) [°C] | Tm (PDC-3; PDC-3 with inhibitor, circular dichroism, PDC-3 alone 52°C) [°C] | increase of Tm upon addition of inhibitor (PDC-88; PDC-88) [°C] | Tm (PDC-88; PDC-88 with inhibitor, circular dichroism, PDC-88 alone 53°C) [°C] |
| --- | --- | --- | --- | --- | --- | --- |
| NC(=O)[C@@H]1CC[C@@H]2CN1C(=O)N2OS(=O)(=O)O [AVI, avibactam] | restoring FEP activity in all cases |  |  |  |  |  |
| C[C@]1(Cn2ccnn2)[C@H](C(=O)O)N2C(=O)C[C@H]2S1(=O)=O [TZB, tazobactam] | failed to restore susceptibility for any of the variants | two- to fourfold | 1 | 53 | 1 | 54 |
